According to PMC7368294 (Proceedings of the National Academy of Sciences of the …, 2020):
pEC50: −log10 of the molar value.

What was measured:
Assay in all cases: cell-based
Parameters in all cases: species or system Xenopus laevis oocytes
[1] = target: T1, Btα1/Btα8/Btβ1 nAChR (Bombus terrestris, UniProt A0A9B0BGM1+A0A9B0F4H3+A0A9B2JDZ7)
T1 sequence (A0A9B0F4H3 44-615): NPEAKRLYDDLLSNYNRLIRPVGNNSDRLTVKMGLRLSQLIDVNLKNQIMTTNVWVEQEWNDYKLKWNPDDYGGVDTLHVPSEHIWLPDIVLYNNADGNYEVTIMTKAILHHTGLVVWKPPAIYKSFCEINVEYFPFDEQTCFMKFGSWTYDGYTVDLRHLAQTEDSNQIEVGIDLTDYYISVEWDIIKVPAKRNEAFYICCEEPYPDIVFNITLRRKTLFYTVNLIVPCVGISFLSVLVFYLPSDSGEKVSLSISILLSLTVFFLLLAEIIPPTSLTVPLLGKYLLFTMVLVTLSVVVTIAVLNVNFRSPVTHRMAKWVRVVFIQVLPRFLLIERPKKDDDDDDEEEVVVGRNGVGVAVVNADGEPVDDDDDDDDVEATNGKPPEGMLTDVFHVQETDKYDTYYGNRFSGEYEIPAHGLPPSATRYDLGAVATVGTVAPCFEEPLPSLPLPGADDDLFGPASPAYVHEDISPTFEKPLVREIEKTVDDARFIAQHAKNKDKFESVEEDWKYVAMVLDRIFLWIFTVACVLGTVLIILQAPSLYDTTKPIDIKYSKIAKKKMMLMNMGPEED
T1 sequence (A0A9B2JDZ7 22-535): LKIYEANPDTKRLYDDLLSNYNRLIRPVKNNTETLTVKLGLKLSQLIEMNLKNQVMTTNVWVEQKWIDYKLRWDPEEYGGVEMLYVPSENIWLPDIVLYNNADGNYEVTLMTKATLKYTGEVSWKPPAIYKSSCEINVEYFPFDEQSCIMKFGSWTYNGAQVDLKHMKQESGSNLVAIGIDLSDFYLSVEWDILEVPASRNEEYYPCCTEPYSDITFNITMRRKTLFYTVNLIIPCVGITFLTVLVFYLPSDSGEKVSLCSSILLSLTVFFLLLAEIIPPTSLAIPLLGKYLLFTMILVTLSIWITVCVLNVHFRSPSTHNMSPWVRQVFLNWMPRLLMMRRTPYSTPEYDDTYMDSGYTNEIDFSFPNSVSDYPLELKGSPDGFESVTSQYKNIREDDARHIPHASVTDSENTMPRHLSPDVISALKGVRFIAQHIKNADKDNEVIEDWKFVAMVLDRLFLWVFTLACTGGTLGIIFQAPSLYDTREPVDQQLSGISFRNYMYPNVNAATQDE
T1 sequence (A0A9B0BGM1 19-519): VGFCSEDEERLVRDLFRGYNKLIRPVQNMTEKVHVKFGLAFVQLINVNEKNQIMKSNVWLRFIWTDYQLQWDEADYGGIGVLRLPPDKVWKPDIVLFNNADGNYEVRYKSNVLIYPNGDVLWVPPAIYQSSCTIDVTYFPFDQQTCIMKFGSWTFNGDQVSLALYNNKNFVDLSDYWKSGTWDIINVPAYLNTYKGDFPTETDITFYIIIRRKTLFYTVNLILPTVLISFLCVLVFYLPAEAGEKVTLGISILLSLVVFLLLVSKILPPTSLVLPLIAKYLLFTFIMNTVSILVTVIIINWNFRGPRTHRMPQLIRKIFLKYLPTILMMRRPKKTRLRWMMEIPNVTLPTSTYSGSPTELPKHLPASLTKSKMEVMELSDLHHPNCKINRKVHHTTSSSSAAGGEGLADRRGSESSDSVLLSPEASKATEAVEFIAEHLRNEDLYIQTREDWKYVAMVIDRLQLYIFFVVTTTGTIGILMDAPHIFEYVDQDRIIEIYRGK

[2] = target: T2, Amα1/Amα8/Amβ1 nAChR (Apis mellifera, UniProt A0A7M7MMZ9+A0A8U0WQ70+A0A8U0WQC0)
T2 sequence (A0A7M7MMZ9 44-627): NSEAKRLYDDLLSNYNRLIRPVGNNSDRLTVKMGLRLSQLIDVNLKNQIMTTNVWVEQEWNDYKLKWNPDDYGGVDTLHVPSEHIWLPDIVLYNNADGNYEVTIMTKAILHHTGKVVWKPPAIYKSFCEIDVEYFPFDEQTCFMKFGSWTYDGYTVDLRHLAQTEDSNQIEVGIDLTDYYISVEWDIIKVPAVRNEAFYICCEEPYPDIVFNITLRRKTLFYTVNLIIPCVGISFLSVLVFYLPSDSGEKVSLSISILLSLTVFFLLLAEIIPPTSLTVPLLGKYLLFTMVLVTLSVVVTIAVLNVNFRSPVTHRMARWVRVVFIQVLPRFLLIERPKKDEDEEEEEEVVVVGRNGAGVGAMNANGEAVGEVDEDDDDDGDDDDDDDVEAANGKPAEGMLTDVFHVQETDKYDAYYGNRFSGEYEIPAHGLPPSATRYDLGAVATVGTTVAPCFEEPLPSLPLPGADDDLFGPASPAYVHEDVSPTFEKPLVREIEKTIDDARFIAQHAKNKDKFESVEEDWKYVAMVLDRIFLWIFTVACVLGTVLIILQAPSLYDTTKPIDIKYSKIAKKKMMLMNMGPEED
T2 sequence (A0A8U0WQ70 25-537): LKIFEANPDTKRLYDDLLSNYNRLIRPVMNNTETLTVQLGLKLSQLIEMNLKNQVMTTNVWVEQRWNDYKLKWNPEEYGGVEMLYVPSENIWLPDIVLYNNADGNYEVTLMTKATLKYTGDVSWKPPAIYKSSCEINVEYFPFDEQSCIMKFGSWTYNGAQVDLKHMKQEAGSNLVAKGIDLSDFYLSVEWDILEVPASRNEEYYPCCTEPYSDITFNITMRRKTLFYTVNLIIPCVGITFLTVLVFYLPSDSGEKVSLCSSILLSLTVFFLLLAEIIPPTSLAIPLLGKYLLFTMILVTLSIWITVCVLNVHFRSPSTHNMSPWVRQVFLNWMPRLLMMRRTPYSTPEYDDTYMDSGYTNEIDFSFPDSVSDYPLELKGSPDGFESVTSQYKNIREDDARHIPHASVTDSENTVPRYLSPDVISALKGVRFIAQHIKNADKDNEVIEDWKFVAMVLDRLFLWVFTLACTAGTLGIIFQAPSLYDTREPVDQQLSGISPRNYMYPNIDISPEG
T2 sequence (A0A8U0WQC0 25-520): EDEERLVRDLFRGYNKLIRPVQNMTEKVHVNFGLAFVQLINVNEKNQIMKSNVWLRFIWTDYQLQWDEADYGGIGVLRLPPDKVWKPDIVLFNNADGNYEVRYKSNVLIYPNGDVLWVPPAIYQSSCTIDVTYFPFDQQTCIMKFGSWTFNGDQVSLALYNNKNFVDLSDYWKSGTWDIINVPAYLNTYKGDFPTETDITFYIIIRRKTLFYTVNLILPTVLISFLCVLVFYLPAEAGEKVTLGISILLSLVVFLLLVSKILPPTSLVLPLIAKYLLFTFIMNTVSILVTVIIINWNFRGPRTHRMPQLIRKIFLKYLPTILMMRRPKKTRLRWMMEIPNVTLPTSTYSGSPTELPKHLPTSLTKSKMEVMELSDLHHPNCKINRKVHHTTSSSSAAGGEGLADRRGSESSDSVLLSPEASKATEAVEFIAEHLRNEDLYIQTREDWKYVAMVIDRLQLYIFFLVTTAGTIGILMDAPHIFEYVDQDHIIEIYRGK

[3] = target: Amα1/Amα2/Amα8/Amβ1 nAChR (Apis mellifera, UniProt A0A7M7MMZ9+A0A8U0WQ70+A0A8U0WQC0+A0A8U0WQD1)
Chain of Amα1/Amα2/Amα8/Amβ1 nAChR (A0A8U0WQD1 18-541, one chain of several): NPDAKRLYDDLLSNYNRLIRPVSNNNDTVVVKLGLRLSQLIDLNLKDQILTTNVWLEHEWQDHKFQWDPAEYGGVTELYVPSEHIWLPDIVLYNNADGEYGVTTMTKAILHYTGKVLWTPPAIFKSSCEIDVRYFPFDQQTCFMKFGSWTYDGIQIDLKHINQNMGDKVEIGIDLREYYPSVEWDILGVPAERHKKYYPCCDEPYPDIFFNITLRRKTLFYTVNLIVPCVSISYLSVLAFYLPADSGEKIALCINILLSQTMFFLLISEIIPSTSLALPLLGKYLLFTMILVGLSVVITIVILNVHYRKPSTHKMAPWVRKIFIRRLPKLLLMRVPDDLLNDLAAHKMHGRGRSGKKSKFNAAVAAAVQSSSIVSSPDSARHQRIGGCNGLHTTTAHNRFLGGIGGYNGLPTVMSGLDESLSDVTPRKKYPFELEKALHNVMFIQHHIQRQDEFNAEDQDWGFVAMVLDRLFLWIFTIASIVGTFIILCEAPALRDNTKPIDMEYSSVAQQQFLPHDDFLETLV

[4] = target: Btα1/Btα2/Btα8/Btβ1 nAChR (Bombus terrestris, UniProt A0A9B0BGM1+A0A9B0F4H3+A0A9B2JDZ7+A0A9B2JMX7)
Chain of Btα1/Btα2/Btα8/Btβ1 nAChR (A0A9B2JMX7 18-544, one chain of several): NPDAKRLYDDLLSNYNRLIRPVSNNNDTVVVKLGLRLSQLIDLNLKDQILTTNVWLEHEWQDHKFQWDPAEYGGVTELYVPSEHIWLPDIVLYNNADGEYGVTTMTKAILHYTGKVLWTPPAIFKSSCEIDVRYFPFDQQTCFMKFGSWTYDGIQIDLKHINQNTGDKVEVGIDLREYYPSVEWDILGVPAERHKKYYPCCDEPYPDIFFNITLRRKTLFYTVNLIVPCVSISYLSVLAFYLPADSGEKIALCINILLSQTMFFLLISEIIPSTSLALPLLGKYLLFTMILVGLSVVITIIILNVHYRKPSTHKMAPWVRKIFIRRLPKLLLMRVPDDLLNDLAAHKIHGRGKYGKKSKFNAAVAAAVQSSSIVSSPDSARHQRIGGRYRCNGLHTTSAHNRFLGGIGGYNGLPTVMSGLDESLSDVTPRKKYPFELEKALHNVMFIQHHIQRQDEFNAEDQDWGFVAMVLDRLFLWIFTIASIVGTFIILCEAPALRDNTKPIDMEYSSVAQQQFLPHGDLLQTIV

Q: With `CC(=O)OCC[N+](C)(C)C` [Acetylcholine] as the molecule, how does the pEC50 [1] read?
A: 5.80

Q: And the pEC50 [2]?
A: 5.94

Q: And the pEC50 [3]?
A: 5.72

Q: And the pEC50 [4]?
A: 5.66
